# Activity calls are given as the source filed them. How the calls were made is not given here.
# Test system: Trypanosoma brucei growth inhibition
# Assay: T. brucei growth inhibition (AID 1159557);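 further: parasites exposed to compound for 48 h before the resazurin readout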
row,SMILES,IC50
1,O=C(Nc1ccccc1)Nc1nc(-c2ccccn2)cs1,1000 nM
2,CCOc1cnn(C)c(=O)c1Nc1ccc(C(=O)NCc2ccc(F)cc2)cc1,> 40000 nM (inactive)
3,CCCN(Cc1ccc(OC)c(OC)c1)Cc1cc(=O)c2c(C)cc(C)cc2[nH]1,25000 nM
4,CCc1c(C)nc(-n2nc(C)cc2NC(=O)COc2ccccc2F)[nH]c1=O,160 nM
5,Cc1nn2c(NCCCO)c3c(nc2c1-c1cccs1)CCC3,320 nM
6,O=C(Cn1cnc2c(-c3ccccc3)csc2c1=O)N1CCCCC1,790 nM
7,COCc1cc(Nc2ccccc2)nc(-c2ccccn2)n1,> 40000 nM (inactive)
8,O=C(CN1CCC2(O)CCCCC2C1c1ccc2c(c1)OCO2)Nc1ccc(Cl)cc1Cl (centres undefined),13000 nM
9,Cc1cc2cc(CNc3ccc4c(c3)OCO4)c(=O)n(CCO)c2cc1C,25000 nM
10,COc1ccc2ncc(=O)n(CCN3CCC(NCc4ccc(-c5cccs5)cc4)CC3)c2n1,3200 nM
11,O=C(COc1ncnc2cc([N+](=O)[O-])ccc12)NC(=O)NC1CCCCC1,6300 nM
12,CCOc1ccc(NC(=O)C=Cc2ccc(CC)o2)cc1,16000 nM
13,Oc1c(-c2n[nH]c(CCc3ccccc3)n2)ncc2cccnc12,790 nM
14,Nc1cc(-c2ccc3ncnc(N4CCOCC4)c3c2)cnc1N,50 nM
15,COc1ccc(-c2nc3ccncc3c(=O)n2CCOc2ccccc2)cc1,25000 nM
16,O=C(Nc1ccc(C(F)(F)F)cc1)NC1(C(=O)NCc2ccco2)CCCCC1,790 nM
17,CCCN1CCN(Cc2ccc(S(=O)(=O)Nc3cccc(C)c3)cc2)CC1,25000 nM
18,COc1ccccc1CNc1cc(C2CC2)nc(-c2nccn2C)n1,2500 nM
19,CC(c1cc(Cl)cc(Cl)c1)N(C)c1ncc2c(N)nc(N)nc2n1 (centres undefined),> 40000 nM (inactive)
20,CC(C)c1cc(Nc2cc(Cc3ccccc3)nc(NC3CCC(O)CC3)n2)n[nH]1 (centres undefined),79 nM
21,CCCC(=O)N(Cc1ccccn1)c1nc2ccccc2s1,20000 nM
22,Cc1nn(-c2nc(N)nc(-c3ccccn3)n2)c(N)c1-c1ccccc1,2000 nM

row,SMILES,IC50
1,Cc1ncsc1CNc1cnc(-c2ccc3c(c2)OCCO3)c(-c2cnn(C)c2)c1,130 nM
2,O=C(Nc1nc2cc(Cl)ccc2o1)c1cccc(Cl)c1,790 nM
3,NS(=O)(=O)c1ccc(Nc2ncc3cccc(OC4CCNCC4)c3n2)cc1,200 nM
4,O=C(Nc1ccc(C(=O)N2CCCC2c2ccc3c(c2)OCCCO3)cc1)c1ccco1 (centres undefined),200 nM
5,Fc1ccccc1N1C[C@H]2CCN(c3cccnc3)C[C@H]2C1,32000 nM
6,CC(Cn1ccnc1)NC(=O)C=Cc1ccc(Cl)cc1 (centres undefined),> 40000 nM (inactive)
7,CN1C(=O)c2ccccc2Sc2ccc(NC(=O)NCc3ccco3)cc21,400 nM
8,CN(C)Cc1cccc(Nc2nccc(-c3ccc(NCCN)c(C#N)c3)n2)c1,50 nM
9,N#Cc1ccc(S(=O)(=O)N2CCN(Cc3cccc(-c4ccncc4)c3)CC2)cc1,> 40000 nM (inactive)
10,O=C(CSc1nnc2ccc(-c3ccc(F)cc3)nn12)N1CCCCC1,400 nM
11,Cc1ccc(Nc2nc(-c3ccccn3)cc(N3CCCC(O)C3)n2)cc1 (centres undefined),3200 nM
12,CN(CCOc1ccc(Cl)cc1)Cc1nc(N)nc(N(C)C)n1,25000 nM
13,Cc1cc(Br)sc1CNCCCNc1cc(=O)c2ccccc2[nH]1,63 nM
14,Cc1cccc(NS(=O)(=O)c2ccc3c(c2)C(=O)c2cc(S(=O)(=O)Nc4cccc(C)c4C)ccc2-3)c1C,7900 nM
15,O=C(COc1ccccc1)Nc1ccccc1C(=O)Nc1nccs1,400 nM
16,COc1ccc(OC)c(NC(=O)c2ccc([N+](=O)[O-])o2)c1,16 nM
17,Cc1cc(C)nc(N2CCC(N(Cc3cccnc3)C(=O)c3cccc(C#N)c3)CC2)n1,> 40000 nM (inactive)
18,C[C@@H](Oc1cc(-n2cnc3ccc(CC(O)CO)cc32)sc1C(N)=O)c1ccccc1Cl (some centres undefined),630 nM
19,Cc1nccn1C1CCCN(C(=O)c2cc3c(F)cccc3s2)C1 (centres undefined),> 40000 nM (inactive)
20,O=C(Nc1cccc(Cl)c1)N1CCCCC1c1cccnc1 (centres undefined),> 40000 nM (inactive)
21,CCn1c(NC(=O)Cc2ccc(F)cc2)nc2ccccc21,3200 nM
22,Cc1cc(Nc2cc(C3CC3)[nH]n2)nc(N2CCCC2)n1,50 nM

row,SMILES,IC50
1,O=C(Cn1cnc2cc([N+](=O)[O-])ccc2c1=O)NCCc1ccc(Cl)cc1Cl,13000 nM
2,c1ccc(-c2nc(NCc3ccco3)c3ccccc3n2)nc1,> 40000 nM (inactive)
3,Cc1nn(-c2nc(N)nc(-c3ccccn3)n2)c(C)c1Cc1ccccc1,> 40000 nM (inactive)
4,COc1ccc(OC)c2c(=O)c(Cc3ccccc3)c(C)[nH]c12,> 40000 nM (inactive)
5,COc1cnc2ccc(=O)n(CCN3CCC(NC/C=C/c4cc(F)ccc4F)CC3)c2c1,400 nM
6,CCCCc1cc(Nc2cc(C3CCC3)[nH]n2)nc(N2CCC2C(N)=O)n1 (centres undefined),130 nM
7,O=C(c1ccc(O)c(Cl)c1)N1CCN(c2cnccn2)CC1,> 40000 nM (inactive)
8,OCC1CCCCN1c1cc(-c2ccccn2)nc(Nc2ccccc2)n1 (centres undefined),5000 nM
9,O=C(N[C@H](CO)c1ccccc1)c1ccc(-c2c[nH]c3nccc(C(F)(F)F)c23)s1,160 nM
10,O=C(Nc1ccccc1C(=O)Nc1ccccn1)c1ccco1,250 nM
11,c1ccc(Nc2nc3ccccc3[nH]2)nc1,16000 nM
12,COc1ccc(C2CC(c3ccccc3Cl)=NN2C(=O)CNC(=O)C2CCCC2)cc1 (centres undefined),630 nM
13,CN(C)S(=O)(=O)c1ccc(Cl)c(C(=O)Nc2nc(-c3ccccn3)cs2)c1,500 nM
14,CCOC(=O)c1cn[nH]c1S(=O)(=O)N1CCC1c1ccccc1 (centres undefined),630 nM
15,Cc1cnc(Nc2cc(Cc3ccccc3)nc(NC3CCC(O)CC3)n2)s1 (centres undefined),25 nM
16,FC(F)(F)c1cc(C2CCCN(Cc3c[nH]c4ccccc34)C2)nc2ncnn12 (centres undefined),> 40000 nM (inactive)
17,O=C(NCC1CCCCN1C(=O)c1cccc2ccccc12)c1ccccc1 (centres undefined),400 nM
18,O=C(NCc1ccc(-n2cccc2)cc1)c1nc(Cn2ccc([N+](=O)[O-])n2)no1,> 40000 nM (inactive)
19,CS(=O)(=O)c1ccc(Nc2nccc(Nc3n[nH]c4ccc(F)cc34)n2)c(F)c1,500 nM
20,O=C(Nc1ncc([N+](=O)[O-])s1)C1CC1,7900 nM
21,Cn1nc(C(=O)N2CCc3ccccc32)c2c1CCS(=O)(=O)C2,4000 nM
22,CN(Cc1nnnn1C1CCN(Cc2ccc(-n3ccnc3)cc2)CC1)c1ccc(F)cc1F,> 40000 nM (inactive)

row,SMILES,IC50
1,N#Cc1cc(N2CCCC2=O)ccc1Sc1ccccc1CO,40000 nM
2,Cc1cc(NC(=O)c2ccc([N+](=O)[O-])s2)ccc1Br,320 nM
3,O=C(c1ccc(OCCCc2cnc[nH]2)cc1)C1CC1,10000 nM
4,CC(c1ccccn1)N(C)Cc1nc2ccccc2n1C(C)C (centres undefined),13000 nM
5,COc1ccc(C(=O)Nc2ccc(NC(=O)CO)cc2)cc1,250 nM
6,CN(C)S(=O)(=O)c1cccc(CSc2nnc(-c3ccc4c(c3)OCO4)o2)c1,32000 nM
7,Cc1c(C#N)c([N+](=O)[O-])nn1Cc1cccc(Cl)c1Cl,16000 nM
8,Nc1nonc1-c1nc2cncc(C(=O)N3CC[C@H](N)C3)c2n1CC1CC1,630 nM
9,COc1ccc(C2CC(c3ccccc3Cl)=NN2C(=O)CNC(=O)C2CCC2)cc1 (centres undefined),320 nM
10,CC(C(=O)Nc1ccc(Br)cc1)N1CCN(c2ccc([N+](=O)[O-])cc2)CC1 (centres undefined),> 40000 nM (inactive)
11,CCCc1cc(C(=O)Nc2ncc(-c3cccc(Br)c3)n2C)n[nH]1,2500 nM
12,Cc1cc2nc(N3CC[C@H]3C(N)=O)nc(Nc3cc(C4CC4)[nH]n3)c2s1,79 nM
13,N#Cc1cccc(CN2CCC(N(Cc3cccnc3)C(=O)c3cc(F)c(F)cc3F)CC2)c1,> 40000 nM (inactive)
14,COc1cccc(NS(=O)(=O)c2ccc3[nH]cc(C(=O)NCCC(C)C)c(=O)c3c2)c1,320 nM
15,CS(=O)(=O)c1ccccc1C(=O)N(Cc1ccccc1)c1ccccc1,400 nM
16,O=C(NCCc1csc(-c2ccc(F)cc2)n1)c1cccs1,250 nM
17,CC(C)(C)Nc1nc(Nc2ccc3c(c2)CS(=O)(=O)C3)nc2[nH]ccc12,790 nM
18,Cc1[nH]nc(Nc2ccnc3[nH]ccc23)c1C,130 nM
19,CCOc1ccc(N(C)S(=O)(=O)c2ccc3[nH]cc(C(=O)NC4CCCC4)c(=O)c3c2)cc1,250 nM
20,O=C(NCC1CCCCC1)c1cc(=O)c2ccccc2o1,1000 nM
21,O=C(CC1(O)C(=O)N(Cc2ccccc2)c2ccc(Br)cc21)c1cccnc1 (centres undefined),630 nM
22,COc1ccc(C(=O)Nc2c(C)nn(COc3cccc(C(F)(F)F)c3)c2C)cc1,790 nM

row,SMILES,IC50
1,CN(Cc1cccnc1)Cc1ccc(N2CCN(C(=O)C3(c4ccc(Cl)cc4)CC3)CC2)nc1,32000 nM
2,COc1ccc(-c2cnc(NC(=O)c3ccc(F)cc3)n2C)cc1,1300 nM
3,c1ccc(CCNCc2cncc3nc(-c4cnccn4)n(C4CCCCC4)c23)cc1,32000 nM
4,COc1cc(C2SCC(=O)Nc3c2c(C)nn3-c2nc3ccccc3s2)cc(OC)c1O (centres undefined),6300 nM
5,COc1ccc(NS(=O)(=O)c2cc(NC(=O)Cc3ccc(C)cc3)ccc2N2CCOCC2)cc1,5000 nM
6,O=C(c1cccc(Nc2ncc(-c3ccc4c(c3)OCO4)cn2)c1)N1CCSC1,13000 nM
7,Cc1[nH]n2c(=O)c3c(nc2c1-c1ccc(Br)cc1)CCCC3,400 nM
8,CC(C)Oc1cccc(N2CCC(C(=O)N3CCCN(C(C)C)CC3)CC2)c1,> 40000 nM (inactive)
9,Clc1ccc(Sc2cnccc2N2CCOCC2)cc1,25000 nM
10,O=C(Nc1ccc(Br)cn1)c1ccc(Cn2cnc([N+](=O)[O-])n2)cc1,1600 nM
11,Nc1ncnc2c1ncn2[C@@H]1O[C@H](CO)C[C@H]1O,13 nM
12,Cc1c(Nc2cc(C3CC3)[nH]n2)ccc(C#N)c1Cl,400 nM
13,CC(C)n1c(-c2nonc2N)nc2cccc(OCCN3CCCC3)c21,790 nM
14,Cc1ccc2c(c1)SC(C(=O)Nc1n[nH]c(-c3ccccn3)n1)C2 (centres undefined),4000 nM
15,Cn1cncc1CN1CCC2(CC1)COC(Cc1ccccc1)C2 (centres undefined),> 40000 nM (inactive)
16,COc1ccc(C2C3CCCCC3(O)CCN2CC(=O)Nc2ccc(Cl)cc2Cl)cc1 (centres undefined),7900 nM
17,O=C(Nc1nc(-c2ccc(S(=O)(=O)N3CCOCC3)cc2)cs1)c1ccc([N+](=O)[O-])cc1,4000 nM
18,O=C(N1CCc2ccccc2CC1)C1(C(=O)N2CCC(n3c(=O)[nH]c4ncccc43)CC2)CC1,> 40000 nM (inactive)
19,CC(c1ccc2c(c1)CCCC2)N(C)c1ncc2c(N)nc(N)nc2n1 (centres undefined),16000 nM
20,CC(=O)NC1(c2ccccc2)CCN(CC(=O)Nc2ccccc2-c2ccccc2)CC1,630 nM
21,CN(Cc1ccccc1)Cc1nnnn1C1CCN(Cc2ccc(-n3ccnc3)cc2)CC1,> 40000 nM (inactive)

# — PubChem BioAssay AID1159557 (GlaxoSmithKline (GSK), 2015)
